Results reported in a melting point compilation (Tetko et al.; mined from patent text by program, amines drawn as free bases though some values may be those of a salt).

| SMILES | melting point |
| --- | --- |
| CS(=O)CCNC(=O)c1cccc(-c2ccc3c(c2)C(c2cc(Cl)ccc2Cl)CC3)c1 (stereo unspecified) | 136 to 138 °C |
| Clc1ccc2c(C3CCNCC3)c[nH]c2c1Cl | 254 to 257 °C |
| O=c1cc(OCc2ccccc2Cl)ccn1Cc1ccccc1 | 125 °C |
| Cc1oc(-c2ccccc2)nc1CCOc1ccc(CCCCCC2OC(=O)NC2=O)cc1 (stereo unspecified) | 157 to 158 °C |
| O=c1c2c(nc3ccc(Br)cn13)C(=Cc1ccc(Cl)cc1Cl)CC2 | 164 to 166 °C |
| CCCCCCCCCCOc1ccc(OCc2ccccc2)c(C(=O)O)c1 | 63 to 65 °C |
| FS(F)(F)(F)(F)c1ccc(/C=C/c2nc(COc3ccc(-c4nc(Cn5ccnn5)co4)cc3)co2)cc1 | 172 to 174 °C |
| CCOC(=O)c1cnc2c(SC(=O)N3CCN(Cc4ccc5c(c4)OCO5)CC3)cccn2c1=O | 159 to 161 °C |
| Cc1c(C(=O)Nc2ccc(OCC(C)(C)C)c(C#N)c2)cnn1C | 187 to 188 °C |
| CCC[C@H]1C=C(C(=O)OCC)OC(=O)[C@H]1Cc1ccccc1 | 77 to 81 °C |
| CCS(=O)(=O)N1CCSc2ccccc2C1 | 78 to 80 °C |
| C=C(c1c(C#N)nn(-c2c(Cl)cc(C(F)(F)F)cc2Cl)c1N)C(F)(F)F | 147 to 148 °C |
| CCCCC(CNc1nc(C)c(O)c(C(C)C)n1)c1ccccc1 (stereo unspecified) | 60 to 61 °C |
| CCCOc1ccc(OC)cc1-c1ncc(C(=O)OCC)c(=O)[nH]1 | 124 to 126 °C |
| CC(C(=O)Cl)c1ccc2c(c1)CCc1ccccc1C2=O (stereo unspecified) | 142 °C |
| CC(=O)c1ccc(OCCCCl)c(C)c1 | 41.5 to 42.5 °C |
| O=C(NCc1cccnc1)c1ccc2n1Cc1ccccc1N(C(=O)c1ccc(-c3ccccc3Cc3nnn[nH]3)cc1)C2 | 164 to 167 °C |
| CS(=O)(=O)N(CCc1ccccn1)CC(O)(Cn1cncn1)c1ccc(Cl)cc1Cl (stereo unspecified) | 151 to 153 °C |
| COc1cc(COc2nn(-c3ccccc3)cc2/C=C/c2ccccn2)ccc1OCc1nc(-c2ccco2)oc1C | 135 to 136 °C |
| COC(=O)[C@H](C)N(C(=O)[C@H](CC(C)C)NC(=O)OC(C)(C)C)c1ccc(Cl)c(Cl)c1 | 117 to 119 °C |
| O=[N+]([O-])c1ccc(Oc2ccccc2-c2ccccc2Oc2ccc([N+](=O)[O-])cc2)cc1 | 158 °C |
| COc1cc(NC(C)=O)c(Cl)cc1C(=O)N[C@H]1CCN(CCCOc2ccc(F)cc2)C[C@H]1OC (relative stereo) | 176 °C |
| CNC(=O)N(C)c1nc2c(s1)C(=O)CC(C)(C)C2 | 174 to 175 °C |
| COc1ccc(-c2cccc(S(=O)(=O)N3CCC(Nc4nc(Nc5cccc(C(F)(F)F)c5)nc(OCC(F)(F)F)n4)CC3)c2)cc1 | 180 to 182 °C |

| SMILES | melting point |
| --- | --- |
| CN1CCC(C(=O)N2CCC(c3[nH]nc4c3C(=O)c3c(NC(=O)NN5CCOCC5)cccc3-4)CC2)CC1 | 148 to 150 °C |
| O=C(Nc1cccc2c(NN3C(=O)CCC3=O)ccnc12)c1c(Cl)cccc1Cl | 170 to 173 °C |
| CCCCOC(=O)[C@H]1CN(c2ccc3c(c2)oc(=O)n3CC)C(=O)O1 | 155 to 157 °C |
| CN(c1cccc2cc(C3=NCC(C)(C#N)S3)[nH]c12)S(=O)(=O)c1cccs1 (stereo unspecified) | 178 to 179 °C |
| CCn1c(=O)c2c(nc(/C=C/c3ccc(OCCCCBr)cc3)n2C)n(CC)c1=O | 175 to 176 °C |
| CCOC(=NC(=O)c1ccccc1)N1Cc2ccccc2-c2ccccc2C1 | 116 to 117 °C |
| Cc1cccc(C)c1CNc1cc(C(N)=O)cc2c1nc(C)n2C | 272 °C |
| O=C1c2ccccc2C(=S)N1C1CC=CCC1 (stereo unspecified) | 93 °C |
| COC(=S)NC[C@H]1CN(c2ccc(-c3nc(Cn4cccn4)cs3)c(F)c2)C(=O)O1 | 157 to 158 °C |
| Nc1cc2c(cc1C(=O)CNC(=O)C(F)(F)F)OCO2 | 219 to 220 °C |
| O=C(NO)c1ccc(-c2c3ccccc3nn2Cc2ccccc2)cc1 | 201 to 203 °C |
| O=C1COc2ccc(CCCCCc3ccc4c(c3)NC(=O)CO4)cc2N1 | 189 to 190 °C |
| CCCCNC(=O)Oc1ccc2c(c1)c(C)cn2NCCCc1ccncc1F | 83 to 84 °C |
| CC1(C)CC(OC(=O)Nc2ccccc2)CC(C)(C)N1CC(OC(=O)Nc1ccccc1)c1ccccc1 (stereo unspecified) | 173 °C |
| CN(OCc1ccccc1)S(=O)(=O)c1ccccc1S(N)(=O)=O | 122 to 128 °C |
| O=C1CCCc2ccc(OCc3ccc4ccccc4n3)cc21 | 98.5 to 102 °C |
| O=C(N1CCN(c2nc(N3CC=CC3)nc(N3CC=CC3)n2)CC1)n1ccnc1 | 160 to 162 °C |
| COc1ccc(C=C2SC(=O)NC2=O)cc1C(=O)NCc1ccc(C(F)(F)F)cc1 | 210 to 212 °C |
| CN(Cc1ccc(NC(=O)C2=Cc3cc(-c4ccc(C(C)(C)C)cc4)ccc3S(=O)(=O)CC2)cc1)C1CCOCC1 | 247 to 249 °C |
| O=C(Nc1ccc(Br)cc1CBr)C(F)(F)F | 133 to 135 °C |
| CC1(C)Cc2cc(OCC(N)=O)c3c(c2C(c2ccccc2)=N1)CC(C)(C)O3 | 117 to 119 °C |
| Cc1cccc(CO)c1CNc1cc(Br)cc2c1nc(C)n2C | 215 to 216 °C |
| COC(=O)C(Cc1cc(OC)cc(C(F)(F)F)c1)NC(=O)c1ccccc1 (stereo unspecified) | 133 °C |
| CC(c1ccccc1N1CCCCC1)C(C(N)=O)c1ccc(C(=O)N(C)C)cc1 (stereo unspecified) | 148 to 150 °C |

| SMILES | melting point |
| --- | --- |
| c1ccc(CN2CCC(n3nnc4ccccc43)CC2)cc1 | 110 to 111 °C |
| O=Cc1ccc2c(c1)CC[C@H](Cc1ccc(O)cc1)O2 | 134 to 135 °C |
| CC(C)c1ccc(C(=O)c2c(N)sc3c2CCN(Cc2ccccc2)C3)cc1 | 157 to 158 °C |
| O=S(=O)(Cl)c1ccc(Oc2ccc(F)cc2)cc1 | 76 °C |
| CCOC(=O)c1ccc(-c2ccc(-c3ccc(Cl)cc3)s2)cc1 | 167 to 168 °C |
| CC(=O)N1CCCC2=C1CCc1cc(Cl)ccc12 | 106 to 108 °C |
| CC(=O)NNCc1c[nH]c(=S)n1[C@H]1CCc2c(F)cc(F)cc2C1 | 144 to 153 °C |
| O=C(c1ccccc1)c1sc2cc(O)ccc2c1-c1ccccc1 | 187 to 190 °C |
| CN(C)C(=O)c1ccc(F)c2c1CC(N(CCCc1c[nH]c3ccc(F)cc13)C1CCC1)CO2 (stereo unspecified) | 126 °C |
| O=C1Nc2cc(CN3CC=C(c4ccccc4)CC3)ccc2OC1F (stereo unspecified) | 239 °C |
| CCOc1ccc(O)c(C(C)(C)C)c1 | 96 to 98 °C |
| O=C(c1ccc2c(c1)OCC(CN1CCOCC1)N2)N1CCOCC1 (stereo unspecified) | 125 to 126 °C |
| CC(C)CC(NC(=O)C1CCCN1)C(=O)NCC(=O)Oc1c(Cl)c(Cl)c(Cl)c(Cl)c1Cl (stereo unspecified) | 169 to 171 °C |
| Cc1cccc(-c2cc(Cl)nc3ccc(C(=O)c4ccc(Cl)cc4)cc23)c1 | 199 °C |
| CS(=O)(=O)c1ccc(N2CC(O)(C(F)(F)F)N=C2c2ccccn2)cc1 (stereo unspecified) | 195 to 198 °C |
| O=C(NCCCc1ccncc1)N(CCCC(F)(F)F)CCC12CC3CC(CC(C3)C1)C2 | 143 to 145 °C |
| CCC#CCCOc1cc(C=O)ccc1OC | 86.5 to 87.5 °C |
| O=Cc1c2ccccc2c(C=O)c2ccccc12 | 224 to 245 °C |
| Cc1c(NC(=O)CC(C)(C)C)c(C)c2c(c1-c1cccc(N3CCCC3)c1)OCC2c1ccc(C(C)C)cc1 (stereo unspecified) | 206 to 207 °C |
| O=c1nc(-c2cccc(CSc3ccncc3)n2)sc2ccccc12 | 182 °C |
| O=C(O)c1c(O)c(-c2ccccc2)nc2ccccc12 | 206 °C |
| C#Cc1cccc(Oc2ccc([N+](=O)[O-])c([N+](=O)[O-])c2)c1 | 68 to 69 °C |
| COc1ccc(S(=O)(=O)Nc2cc(C(=O)Nc3ccccc3)ccc2OC)cc1 | 184 to 186 °C |
| CC1CC(=O)NN=C1c1ccc(Nc2ccccc2)nc1 (stereo unspecified) | 202 to 204 °C |

| SMILES | melting point |
| --- | --- |
| N=C(Nc1ccccc1-c1cccc(F)c1)N1CCC(O)CC1 | 147 to 148 °C |
| Cc1cc(-c2ccccc2)c(=O)n2c1-c1sccc1CC2 | 80.5 to 81 °C |
| CC(C)CN(Cc1nnc(-c2ncn3c2CN(C)C(=O)c2ccccc2-3)o1)CC(C)C | 138 to 140 °C |
| COc1ccc(C(=O)c2sccc2OC2OC(COC(C)=O)C(OC(C)=O)C(OC(C)=O)C2OC(C)=O)cc1 (stereo unspecified) | 149 to 151 °C |
| Cc1c(/C=C2\COc3ccccc3C2=O)ncn1C(c1ccccc1)(c1ccccc1)c1ccccc1 | 231 to 233 °C |
| CCC(C)C(CO)NC(=O)CC(O)C(CC(C)C)NC(=O)C(Cc1cscn1)NC(=O)C(Cc1cccc2ccccc12)NC(=O)OCc1ccccc1 (mixture of isomers) | 167 to 169 °C |
| CC1(C)Oc2ccc([N+](=O)[O-])cc2C=C1CBr | 107 °C |
| OC1c2ccccc2COc2ccc(-c3nnn[nH]3)cc21 (stereo unspecified) | 335 °C |
| COC(=O)C=Cc1ccc(C)cc1 | 55 to 56 °C |
| CN1CCN(c2ccc(Nc3ncc4ccc(-c5ccc(S(C)(=O)=O)cc5)n4n3)cc2F)CC1 | 227 °C |
| O=C(O)[C@@H]1C[C@H]2C[C@@H](CCc3cc(O)no3)CC[C@H]2CN1 (racemic) | 256 °C |
| OCc1ccc(-c2ccc(-c3cn([C@H]4CN5CCC4CC5)nn3)cc2)cc1 | 250 °C |
| CCN1c2cscc2CN(C)c2ccccc21 | 135 to 137 °C |
| COc1ccc(/C=C/C(=O)/C=C/C(=O)O)c(OC)c1OC | 125 to 127 °C |
| COc1ccc(C(=O)Nc2ccccc2)cc1Nc1cccc(C)c1 | 160 to 161 °C |
| CCCc1nn(C)c2c(=O)n(CCOc3ccc(SC(C)(C)C(=O)O)cc3)c(CC)nc12 | 104 to 106 °C |
| Cc1cccc(-n2ncc(C)c2-c2cc3cnccc3s2)n1 | 155 to 156 °C |
| CNc1cnc(N2CCOCC2)cc1-c1ccccc1C | 73.5 to 76 °C |
| Cc1cc(C)c(C=O)c(-c2ccc(Cl)c(Cl)c2)c1 | 80 to 81 °C |
| Cc1cc(C(C)(C)C)c(O[Si](C)(C)Cl)c(C(C)(C)C)c1 | 119 to 121 °C |
| CCOC(=O)N1CCC(Nc2nc3cncnc3n2C2CC2)CC1 | 177 °C |
| Clc1nc2ccccc2n2cnc(-c3nc(C4CC4)no3)c12 | 166 to 168 °C |
| CCOC(=O)COc1ccc(NC(=O)OC(C)(C)C)cc1OC | 81 to 83 °C |
| Cc1ccc(-c2cncnc2O)cc1 | 189 to 192 °C |
